Experimental data published in patent publication US20240300945A1, “CLY SERIES COMPOUND, PREPARATION METHOD THEREFOR AND USE THEREOF IN PREPARATION OF DRUGS” (NANJING WELLBEST PHARMACEUTICAL CO., LTD, priority 2021, published 2024).

Legend:
[1] = system: rat pulmonary fibrosis model; test: Rat pulmonary fibrosis model (bleomycin); type: in vivo, Wistar rats; settings: 3 mg/kg·d tail vein, 14 days; for VEGFprotein in lung tissue / MMP-2 expression in lung tissue / MMP-9 expression in lung tissue / TIMP-1 expression in lung tissue / VEGF-mRNA in lung tissue: rat lung; for VEGFprotein in lung tissue: ELISA; for MMP-2 expression in lung tissue / MMP-9 expression in lung tissue / TIMP-1 expression in lung tissue: immunohistochemistry; for VEGF-mRNA in lung tissue: reverse transcription PCR; for CAT in peripheral blood / SOD in peripheral blood: rat peripheral blood
Procedure: (1) Reagents: bleomycin (4 mg/dose, Tianjin Taihe Pharmaceutical Co., Ltd.), mouse anti-mouse MMP monoclonal antibody (NEO Mark-ers Company), mouse anti-mouse TIMP-1 polyclonal antibody (Wuhan Shide Company), enzyme-linked immunosorbent assay (ELISA) kit (R&D Company of the United States), Quantscript RT Kit reverse transcription kit (Dalian TaKaRa Company).
The rats were, according to the number of body weight, divided into the blank control group, model group, and CLY series treatment group by random array method, with 12 rats in each group, half male and half female. The rats in each group were anesthetized by intraperitoneal injection of 2% pentobarbital sodium ([…]), fixed on the operating table, and injected by tracheotomy in the neck. The blank control group was injected with normal saline (1.25 ml/kg), and the model group and CLY treatment group were injected with 5 U/mL bleomycin solution (5 mg/kg), once a day, for 14 consecutive days. From one week after the establishment of the model, the corresponding CLY compound solution (3 mg/kg·d) was injected into the tail vein of each treatment group, and the same amount of normal saline was injected into the tail vein of the blank control group and the model group, once a day, for 14 consecutive days.
The peripheral venous blood of animals in each group was taken from the tail vein after modeling and 14 days after treatment, and the levels of superoxide dismutase (SOD) and catalase (CAT) in peripheral blood were measured. After taking blood from each group, the rats were sacrificed twice (after modeling and 14 days of treatment). The right lung tissue of the animals was stored in a refrigerator at −4° C. for detection of VEGF. The left lung tissue was routinely embedded in paraffin and sectioned. The expression of MMP subtype and TIMP-1 in the lung tissue of the rats was detected by immunohistochemistry. The right lung tissue was ground and homogenized, and the supernatant was taken after 3000 r/min high-speed centrifugation. The lung tissue VEGF protein was detected by ELISA, and the expression of VEGF-mRNA was detected by reverse transcription polymerase chain reaction.

[2] = system: chloasma model of guinea pig; test: Chloasma model of guinea pig: tyrosine, MDA content and SOD activity of skin tissue; type: in vivo; settings: 0.25% cream on the skin once a day, 30 days
Source text: 1.1.4 Preparation method of treatment cream: The excipient matrix components include methyl silicone oil (15%), stearic acid (6%), white vaseline (5%), liquid paraffin (5%), octadecanol (5%), glycerin (20%), alkyl aryl polyglycol ether (1%), fatty alcohol polyoxyethylene ether (1%), […] (1%), ethyl paraben (0.1%), distilled water (about 31-55%), and are mixed with appropriate amount of CLY series compounds to form 0.25% mixed emulsion. The cream matrix used in this embodiment refers to the matrix components after the active ingredients are removed from the cream.
According to the body weight, they were randomly divided into the model control group (applied cream matrix), blank control group (applied cream matrix), CLY-1 treatment group (applied 0.25% CLY-1 cream on the skin), CLY-2 treatment group (0.25% CLY-2 cream on the skin), CLY-3 treatment group (0.25% CLY-3 cream on the skin), CLY-4 treatment group (0.25% CLY-4 cream on the skin), CLY-5 treatment group (0.25% CLY-5 cream on the skin) CLY-8 treatment group (0.25% CLY-8 cream on the skin), CLY-11 treatment group (0.25% CLY-11 cream on the skin), CLY-19 treatment group (0.25% CLY-19 cream on the skin), CLY-36 treatment group (0.25% CLY-36 cream on the skin), CLY-39 treatment group (0.25% CLY-39 cream on the skin), positive treatment group (0.25% arbutin cream on the skin), 6 in each group. In addition to the blank control group, all guinea pigs in the other groups were injected with 20 mg/ml progesterone injection (7.5 mg/kg) into the muscle at the root of the hind leg, once a day, for 30 consecutive days to establish the chloasma model. […] After modeling, the guinea pigs in the model control group, blank control group, each CLY series treatment group, and positive treatment group were treated with corresponding cream on the back for intervention, once a day, for 30 consecutive days.
Took one piece of skin tissue from each guinea pig, separately. Washed it with precooled normal saline, removed subcutaneous fat and other connective tissue, and then wiped it dry. Each piece of skin tissue was cut to 0.5 g. Then put it into five small tubes containing 2.0 ml of precooled normal saline. The high-speed dispersion machine homogenizes at a speed of […], lasted for 10 seconds, repeated once, centrifuged at a speed of 3500 r/m for 15 minutes, and took the supernatant. Tyrosine was determined by HPLC, MDA was determined by the thiobarbituric acid method, SOD was determined by the xanthine oxidase method, and tyrosine, MDA content, and SOD activity were determined according to the instructions of the kit.
SPSS16.0 software was used for statistics. The measurement data were expressed by mean±standard deviation (x±s). The comparison between multiple groups was performed by one-way ANOVA, and the comparison between groups was performed by t-test. P<0.05 was statistically significant.

RA model = test: Rheumatoid arthritis (RA) model (Freund's adjuvant complete); type: in vivo, Wistar rats; settings: RA rats, gavage 10 mg/kg once a day, 21 days; for IL-10 in serum / IL-17 in serum: ELISA; for Joint score (arthritis score): maximum 16 points
Procedure: Freund's Adjuvant Complete (FCA, purchased from Sigma, USA); IL-10 ELISA kit (Lianke Biotechnology Co., Ltd.); IL-17 ELISA kit (Raybiotech, USA). Eighteen 5-week-old female Wistar rats were randomly divided into the control group, RA model group, and CLY series compound treatment group, with 6 rats in each group. The control group: disinfected the right toe of rats with 75% alcohol, and injected 0.15 mL physiological saline subcutaneously into the right toe of rats. The RA model group: On the first day of the experiment, each rat was routinely disinfected, and 0.15 mL of FCA was injected subcutaneously into the right foot of the rat. The CLY series compound treatment group: On the first day after the experiment, each rat was routinely disinfected, and 0.15 mL of FCA was injected subcutaneously into the right plantar of the rat. After 7 days, CLY series compound was administered by gavage with a dose of 10 mg/kg once a day. The RA model group and control group were administered by gavage with normal saline (10 mg/kg·d) every day for 21 consecutive days. On the 21st day after the intervention of CLY series compounds, 3 mL of blood was collected from the heart of rats, and the serum was isolated. The levels of IL-10 and IL-17 in the serum of rats were detected by ELISA. After the 21st day of intervention, the arthritis score of each group of rats was measured, and the swelling degree of the right toe joint of each group of rats was measured. According to the inflammatory reaction of RA rats, the severity of the ankle joint was scored as 0 to 4, which was normal; 1 point, slightly red and slightly swollen ankle joint; 2 points: erythema and slight swelling from ankle joint to metatarsal joint or metacarpal joint; 3 points: erythema and moderate swelling from ankle joint to metacarpal joint or metatarsophalangeal joint; 4 points, the ankle joint to toe joint were severely red and swollen. Added the limb scores of each rat as the arthritis score, and the maximum score was 16 points.

SMILES	VEGFprotein in lung tissue [1] [pg/mL]	MMP-2 expression in lung tissue [1]	MMP-9 expression in lung tissue [1]	TIMP-1 expression in lung tissue [1]	VEGF-mRNA in lung tissue [1]	CAT in peripheral blood [1] [kU/g]	SOD in peripheral blood [1] [U/ml]	MDA [2] [nmol/mL]	SOD [2] [NU/ml]	tyrosine [2] [µg]	Body mass (RA model) [g]	Swelling degree (right toe joint) (RA model) [mm]	IL-10 in serum (RA model) [pg/mL]	IL-17 in serum (RA model) [pg/mL]	Joint score (arthritis score) (RA model)
CN1CCC[C@@H](N(C(=O)c2ccc(-n3nnc4cccnc43)cc2)c2ncccc2Cl)C1 [CLY-1, (R)-4-(3H-[1,2,3]triazolo[4,5-b]pyridin-3-yl)-N-(3-chloropyridin-2-yl)-N-(1-methylpiperidin-3-yl)benzamide]	52.16 ± 3.61	2.43 ± 0.21	3.32 ± 0.23	7.82 ± 0.45	0.76 ± 0.11	14.13 ± 1.22	214.58 ± 13.53	11.32 ± 1.15	103.65 ± 9.63	0.45 ± 0.07	354.5 ± 13.48	9.7 ± 0.68	65.36 ± 6.78	46.15 ± 4.23	4.35 ± 0.37
CCN1CCC[C@@H](N(C(=O)c2ccc(-n3nnc4cccnc43)cc2)c2ncccc2Cl)C1 [CLY-2, (R)-4-(3H-[1,2,3]triazolo[4,5-b]pyridin-3-yl)-N-(3-chloropyridin-2-yl)-N-(1-ethylpiperidin-3-yl)benzamide]	51.18 ± 3.69	2.51 ± 0.24	3.36 ± 0.25	8.06 ± 0.49	0.71 ± 0.12	14.28 ± 1.39	216.62 ± 13.55	10.86 ± 1.19	105.23 ± 9.82	0.43 ± 0.06	358.2 ± 13.92	9.4 ± 0.53	67.03 ± 7.02	46.23 ± 3.96	4.21 ± 0.29
CNC1CCCC(N(C(=O)c2ccc(-n3nnc4cccnc43)cc2)c2ncccc2Cl)C1 (stereo not shown) [CLY-3]								11.57 ± 1.18	97.45 ± 9.23	0.51 ± 0.07					
O=C(c1ccc(-n2nnc3cccnc32)cc1)N(c1ncccc1Cl)C1CCCC(O)C1 (stereo not shown) [CLY-4]								11.62 ± 1.15	95.12 ± 8.65	0.53 ± 0.06					
COC1CCCC(N(C(=O)c2ccc(-n3nnc4cccnc43)cc2)c2ncccc2Cl)C1 (stereo not shown) [CLY-5]								10.65 ± 1.14	105.89 ± 9.86	0.43 ± 0.05					
O=C(c1ccc(-n2nnc3cccnc32)cc1)N(c1ncccc1Cl)[C@@H]1CCNC1 [CLY-8, (R)-4-(3H-[1,2,3]triazolo[4,5-b]pyridin-3-yl)-N-(3-chloropyridin-2-yl)-N-(pyrrolidin-3-yl)benzamide]	53.16 ± 3.62	2.44 ± 0.21	3.31 ± 0.21	8.82 ± 0.53	0.79 ± 0.13	14.75 ± 1.22	220.86 ± 13.78	10.59 ± 1.12	105.68 ± 9.75	0.43 ± 0.03	363.5 ± 13.63	9.5 ± 0.72	66.75 ± 6.78	43.51 ± 4.16	4.32 ± 0.41
NC1CCCC(N(C(=O)c2ccc(-n3nnc4cccnc43)cc2)c2ncccc2Cl)C1 (stereo not shown) [CLY-11]	49.86 ± 3.58	2.52 ± 0.23	3.53 ± 0.26	8.13 ± 0.38	0.76 ± 0.13	13.96 ± 1.36	216.48 ± 13.16	11.62 ± 1.21	95.13 ± 9.16	0.54 ± 0.06					
O=C(c1ccc(-c2ccccc2-c2nnn[nH]2)cc1)N(c1ncccc1Cl)[C@@H]1CCCNC1 [CLY-19]								11.75 ± 1.26	96.53 ± 9.21	0.56 ± 0.07					
O=C(c1ccc(-c2ccccc2Cl)cc1)N(c1ncccc1Cl)[C@@H]1CCCNC1 [CLY-36]	53.87 ± 3.73	2.59 ± 0.23	3.46 ± 0.25	7.63 ± 0.52	0.83 ± 0.13	13.26 ± 1.26	221.76 ± 13.57	11.83 ± 1.27	93.42 ± 9.03	0.58 ± 0.08	352.6 ± 12.96	9.3 ± 0.51	58.96 ± 5.89	44.18 ± 3.97	4.46 ± 0.42
Nc1ccccc1-c1ccc(C(=O)N(c2ncccc2Cl)[C@@H]2CCCNC2)cc1 [CLY-39]								10.81 ± 1.23	103.16 ± 9.65	0.46 ± 0.05					
